Measurements taken from patent USRE47589E1, “Phosphoramidate compounds and methods of use” (NuCana plc, priority 2003, dated 2019).

Experiments:
HIV-1 = details: cited from earlier work; for EC50: d4T phosphoramidates, prior art, read-out: 50% effective doses vs HIV-1
[1] = test system: human breast cancer cell line (MDA MB 231); assay: MTT cytotoxicity assay, breast cancer cell line; assay type: cell-based; details: Homo sapiens, MDA-MB-231, read-out: EC50/μM Breast MDA MB231
Description: (§1) The compounds include those whose preparations are described above and compounds made by preparative methods corresponding to the methods described above.
(§2) Compounds were diluted over a range of concentrations and added to cells over 1 to 3 days. The cytotoxity was determined using a MTT assay at the end of each experiment.

[2] = test system: human colon cancer cell line (HT115); assay: MTT cytotoxicity assay, colon cancer cell line; assay type: cell-based; details: Homo sapiens, HT115, read-out: EC50/μM Colon HT115, MTT assay, compounds added to cells over 1 to 3 days
Description: as §1, §2

[3] = test system: human prostate cancer cell line (PC-3); assay: MTT cytotoxicity assay, prostate cancer cell line; assay type: cell-based; details: Homo sapiens, read-out: EC50/μM Prostate PC-3
Description: as §1, §2

Structure (SMILES): COC(=O)C(C)NP(=O)(OCC1C=CC(n2cc(C)c(=O)[nH]c2=O)O1)Oc1ccccc1 (stereo not shown) [(9)]
- EC50 (HIV-1): 75 nM

Structure (SMILES): CCOC(=O)C(C)(C)NP(=O)(OC[C@H]1O[C@@H](n2cc(/C=C/Br)c(=O)[nH]c2=O)CC1O)Oc1ccc([N+](=O)[O-])cc1 (stereo partly drawn) [Example 46, (E)-5-(2-bromovinyl)-2′-deoxyuridine-5′-[4-nitrophenyl-(ethoxy-α,α-dimethylglycinyl)]-phosphate]
- EC50 [1]: 2 µM
- EC50 [2]: 224 µM
- EC50 [3]: 82.4 µM

Structure (SMILES): CC(C)(NP(=O)(OC[C@H]1O[C@@H](n2cc(/C=C/Br)c(=O)[nH]c2=O)CC1O)Oc1ccc([N+](=O)[O-])cc1)C(=O)OCc1ccccc1 (stereo partly drawn) [Example 47, (E)-5-(2-bromovinyl)-2′-deoxyuridine-5′-[4-nitrophenyl-(benzoxy-α,α-dimethylglycinyl)]-phosphate]
- EC50 [1]: 4.5 µM
- EC50 [2]: 16.7 µM
- EC50 [3]: 27.2 µM

Structure (SMILES): CCOC(=O)C1(NP(=O)(OC[C@H]2O[C@@H](n3cc(/C=C/Br)c(=O)[nH]c3=O)CC2O)Oc2ccccc2)CCCC1 (stereo partly drawn) [Example 17, (E)-5-(2-Bromovinyl)-2′-deoxyuridine-5′-[phenyl-(ethoxy-α, α-cycloleucinyl)]-phosphate]
- EC50 [1]: 44 µM
- EC50 [2]: 81.3 µM
- EC50 [3]: 41 µM

Structure (SMILES): C[C@H](NP(=O)(OC[C@H]1O[C@@H](n2ccc(N)nc2=O)C(F)(F)C1O)Oc1ccc(Cl)cc1)C(=O)OCc1ccccc1 (stereo partly drawn) [Example 40, Gemcitabine-[para-chlorophenyl-(benzoxy-L-alaninyl)]-phosphate]
- EC50 [1]: 9.2 µM
- EC50 [2]: 16.1 µM
- EC50 [3]: 15.4 µM

Structure (SMILES): COC(=O)C1(NP(=O)(OC[C@H]2O[C@@H](n3cc(/C=C/Br)c(=O)[nH]c3=O)CC2O)Oc2ccc(F)cc2)CCCC1 (stereo partly drawn) [Example 22, (E)-5-(2-Bromovinyl)-2′-deoxyuridine-5′-[para-fluorophenyl-(methoxy-α,α-cycloleucinyl)]-phosphate]
- EC50 [1]: 57 µM
- EC50 [2]: 59.7 µM
- EC50 [3]: 51 µM

Structure (SMILES): CCOC(=O)[C@H](C)NP(=O)(OC[C@H]1O[C@@H](n2cc(/C=C/Br)c(=O)[nH]c2=O)CC1O)Oc1ccc([N+](=O)[O-])cc1 (stereo partly drawn) [Example 9, (E)-5-(2-Bromovinyl)-2′-deoxyuridine-5′-[para-nitrophenyl-(ethoxy-L-alaninyl)]-phosphate]
- EC50 [1]: 177 µM
- EC50 [2]: 119 µM
- EC50 [3]: 365 µM

Structure (SMILES): COC(=O)C(C)NP(=O)(OCC1C=CC(n2cc(C)c(=O)[nH]c2=O)O1)Oc1ccc(C(F)(F)F)cc1 (stereo not shown) [(13)]
- EC50 (HIV-1): 10 nM

Structure (SMILES): COC(=O)[C@H](C)NP(=O)(OC[C@H]1O[C@@H](n2cc(/C=C/Br)c(=O)[nH]c2=O)CC1O)Oc1ccc(F)cc1 (stereo partly drawn) [Example 5, (E)-5-(2-Bromovinyl)-2′-deoxyuridine-5′-[para-fluorophenyl-(methoxy-L-alaninyl)]-phosphate]
- EC50 [1]: 159 µM
- EC50 [2]: 17 µM
- EC50 [3]: 58 µM

Structure (SMILES): COC(=O)[C@H](C)NP(=O)(OC[C@H]1O[C@@H](n2cc(/C=C/Br)c(=O)[nH]c2=O)CC1O)Oc1ccc(C(F)(F)F)cc1 (stereo partly drawn) [Example 15, (E)-5-(2-bromovinyl)-2′-deoxyuridine-5′-[para-(trifluoromethyl)-phenyl-(methoxy-L-alaninyl)]-phosphate]
- EC50 [1]: 47 µM
- EC50 [2]: 79.2 µM
- EC50 [3]: 15 µM

Structure (SMILES): O=C(OCc1ccccc1)C1(NP(=O)(OC[C@H]2O[C@@H](n3cc(/C=C/Br)c(=O)[nH]c3=O)CC2O)Oc2ccccc2)CCCC1 (stereo partly drawn) [Example 18, (E)-5-(2-Bromovinyl)-2′-deoxyuridine-5′-[phenyl-(benzoxy-α, α-cycloleucinyl)]-phosphate]
- EC50 [1]: 78 µM
- EC50 [2]: 9.7 µM
- EC50 [3]: 33 µM

Structure (SMILES): COC(=O)[C@H](C)NP(=O)(OC[C@H]1O[C@@H](n2cc(/C=C/Br)c(=O)[nH]c2=O)CC1O)Oc1ccc([N+](=O)[O-])cc1 (stereo partly drawn) [Example 10, (E)-5-(2-Bromovinyl)-2 ′-deoxyuridine-5′-[para-nitrophenyl-(methoxy-L-alaninyl)]-phosphate]
- EC50 [1]: 105 µM
- EC50 [2]: 96.7 µM
- EC50 [3]: 10.4 µM

Structure (SMILES): Cc1cn(C2C=CC(COP(=O)(NC(C)C(=O)OCc3ccccc3)Oc3ccccc3)O2)c(=O)[nH]c1=O (stereo not shown) [(10)]
- potency boost of (10) over (9) (HIV-1; equivalent phosphoramidates of d4T, McGuigan et al, AVCC, 1998): ~4 fold

Structure (SMILES): COC(=O)C(C)(C)NP(=O)(OC[C@H]1O[C@@H](n2cc(/C=C/Br)c(=O)[nH]c2=O)CC1O)Oc1ccccc1 (stereo partly drawn) [Example 26, (E)-5-(2-bromovinyl)2′-deoxyuridine-5′-[phenyl-(methoxy-α,α-dimethylglycinyl)]-phosphate]
- EC50 [1]: 41.1 µM
- EC50 [2]: 77.9 µM
- EC50 [3]: 1.5 µM

Structure (SMILES): C[C@H](NP(=O)(OC[C@H]1O[C@@H](n2cc(/C=C/Br)c(=O)[nH]c2=O)CC1O)Oc1ccc(F)cc1)C(=O)OCc1ccccc1 (stereo partly shown) [Example 7]
- EC50 [1]: 17 µM
- EC50 [2]: 3.5 µM
- EC50 [3]: 16 µM

Structure (SMILES): COC(=O)[C@H](C)NP(=O)(OC[C@H]1O[C@@H](n2cc(/C=C/Br)c(=O)[nH]c2=O)CC1O)Oc1ccc(Cl)cc1 (stereo partly drawn) [Example 13, (E)-5-(2-bromovinyl)-2′-deoxyuridine-5′-[4-chlorophenyl-(methoxy-L-alaninyl)]-phosphate]
- EC50 [1]: 61 µM
- EC50 [2]: 70.2 µM
- EC50 [3]: 13 µM

Structure (SMILES): CCOC(=O)C1(NP(=O)(OC[C@H]2O[C@@H](n3cc(/C=C/Br)c(=O)[nH]c3=O)CC2O)Oc2ccc([N+](=O)[O-])cc2)CCCC1 (stereo partly drawn) [Example 20, (E)-5-(2-Bromovinyl)-2′-deoxyuridine-5′-[para-nitrophenyl-(ethoxy-α,α-cycloleucinyl)]-phosphate]
- EC50 [1]: 13 µM
- EC50 [2]: 57.3 µM
- EC50 [3]: 15 µM

Structure (SMILES): CCOC(=O)C1(NP(=O)(OC[C@H]2O[C@@H](n3cc(/C=C/Br)c(=O)[nH]c3=O)CC2O)Oc2ccc(F)cc2)CCCC1 (stereo partly drawn) [Example 23, (E)-5-(2-Bromovinyl)-2′-deoxyuridine-5′-[para-fluorophenyl-(ethoxy-α,α-cycloleucinyl)]-phosphate]
- EC50 [1]: 9.9 µM
- EC50 [2]: 18.1 µM
- EC50 [3]: 2.7 µM

Structure (SMILES): CCOC(=O)[C@H](C)NP(=O)(OC[C@H]1O[C@@H](n2cc(/C=C/Br)c(=O)[nH]c2=O)CC1O)Oc1ccc(F)cc1 (stereo partly drawn) [Example 6, (E)-5-(2-Bromovinyl)-2′-deoxyuridine-5′-[para-fluorophenyl-(ethoxy-L-alaninyl)]-phosphate]
- EC50 [1]: 46 µM
- EC50 [2]: 11 µM
- EC50 [3]: 42 µM

Structure (SMILES): CC(C)(NP(=O)(OC[C@H]1O[C@@H](n2cc(/C=C/Br)c(=O)[nH]c2=O)CC1O)Oc1ccccc1)C(=O)OCc1ccccc1 (stereo partly drawn) [Example 14, (E)-5-(2-bromovinyl)-2′-deoxyuridine-5′-[phenyl-(benzoxy-α,α-dimethylglycinyl)]-phosphate]
- EC50 [1]: 19 µM
- EC50 [2]: 14.5 µM
- EC50 [3]: 5.1 µM

Structure (SMILES): COC(=O)C(C)(C)NP(=O)(OCC1C=CC(n2cc(C)c(=O)[nH]c2=O)O1)Oc1ccccc1 (stereo not shown) [(12)]
- EC50 (HIV-1): 290 nM

Structure (SMILES): COC(=O)[C@H](CC(C)C)NP(=O)(OC[C@H]1O[C@@H](n2cc(/C=C/Br)c(=O)[nH]c2=O)CC1O)Oc1ccccc1 (stereo partly drawn) [Example 35, (E)-5-(2-Bromovinyl)-2′-deoxyuridine-5′-[phenyl-(methoxy-L-leucinyl)]-phosphate]
- EC50 [1]: 18.5 µM
- EC50 [2]: 7.7 µM
- EC50 [3]: 75.7 µM

Structure (SMILES): COC(=O)C1(NP(=O)(OC[C@H]2O[C@@H](n3cc(/C=C/Br)c(=O)[nH]c3=O)CC2O)Oc2ccc(Cl)cc2)CCCC1 (stereo partly drawn) [Example 32, (E)-5-(2-Bromovinyl)-2′-deoxyuridine-5′-[para-chlorophenyl-(methoxy-α,α-cycloleucinyl)]-phosphate]
- EC50 [1]: 2.6 µM
- EC50 [2]: 99.3 µM
- EC50 [3]: 52.2 µM

Structure (SMILES): C[C@H](NP(=O)(OC[C@H]1O[C@@H](n2cc(/C=C/Br)c(=O)[nH]c2=O)CC1O)Oc1ccc(C(F)(F)F)cc1)C(=O)OCc1ccccc1 (stereo partly drawn) [Example 4, (E)-5-(2-Bromovinyl)-2′-deoxyuridine-5′-[para-trifluorophenyl-(benzoxy-L-alaninyl)]-phosphate]
- EC50 [1]: 31 µM
- EC50 [2]: 7.4 µM
- EC50 [3]: 9.3 µM

Structure (SMILES): CCOC(=O)C1(NP(=O)(OC[C@H]2O[C@@H](n3cc(/C=C/Br)c(=O)[nH]c3=O)CC2O)Oc2ccc(C(F)(F)F)cc2)CCCC1 (stereo partly drawn) [Example 29, (E)-5-(2-Bromovinyl)-2′-deoxyuridine-5′-[para-trifluorophenyl-(ethoxy-α,α-cycloleucinyl)]-phosphate]
- EC50 [1]: 45.6 µM
- EC50 [2]: 15.1 µM
- EC50 [3]: 4.3 µM

Structure (SMILES): COC(=O)C1(NP(=O)(OC[C@H]2O[C@@H](n3cc(/C=C/Br)c(=O)[nH]c3=O)CC2O)Oc2ccc([N+](=O)[O-])cc2)CCCC1 (stereo partly drawn) [Example 19, (E)-5-(2-Bromovinyl)-2′-deoxyuridine-5′-[para-nitrophenyl-(methoxy-α,α-cycloleucinyl)]-phosphate]
- EC50 [1]: 56 µM
- EC50 [2]: 38.2 µM
- EC50 [3]: 88 µM

Structure (SMILES): CCOC(=O)C(C)(C)NP(=O)(OC[C@H]1O[C@@H](n2cc(/C=C/Br)c(=O)[nH]c2=O)CC1O)Oc1ccccc1 (stereo partly drawn) [Example 27, (E)-5-(2-bromovinyl)-2′-deoxyuridine-5′-[phenyl-(ethoxy-α,α-dimethylglycinyl)]-phosphate]
- EC50 [1]: 218 µM
- EC50 [2]: 39.7 µM
- EC50 [3]: 76.1 µM

Structure (SMILES): CCOC(=O)C1(NP(=O)(OC[C@H]2O[C@@H](n3cc(/C=C/Br)c(=O)[nH]c3=O)CC2O)Oc2ccc(Cl)cc2)CCCC1 (stereo partly drawn) [Example 33, (E)-5-(2-Bromovinyl)-2′-deoxyuridine-5′-[para-chlorophenyl-(ethoxy-α,α-cycloleucinyl)]-phosphate]
- EC50 [1]: 12 µM
- EC50 [2]: 97.9 µM
- EC50 [3]: 83.2 µM
